These results are taken from patent US20230133958A1, “COMPOUNDS USEFUL IN MODULATING EGFR AND PI3K” (Mekanistic Therapeutics LLC, priority 2021, published 2023).

For experiment [1], the system named is K-562. The experiment is described as follows: NCI COMPARE panel (SRB growth inhibition), K-562. It counts as cell-based. Conditions: Homo sapiens, K562; Leukemia, K-562, 48 h. The procedure:
(§1) The human tumor cell lines of the cancer screening panel are grown in RPMI 1640 medium containing 5% fetal bovine serum and 2 mM L-glutamine. For a typical screening experiment, cells are inoculated into 96 well microtiter plates in 100 µL at plating densities ranging from 5,000 to 40,000 cells/well depending on the doubling time of individual cell lines. After cell inoculation, the microtiter plates are incubated at 37° C., 5% CO2, 95% air and 100% relative humidity for 24 h prior to addition of experimental drugs.
(§2) After 24 h, two plates of each cell line are fixed in situ with TCA, to represent a measurement of the cell population for each cell line at the time of drug addition (Tz). Experimental drugs are solubilized in dimethyl sulfoxide at 400-fold the desired final maximum test concentration and stored frozen prior to use. […]
(§3) Following drug addition, the plates are incubated for an additional 48 h at 37° C., 5 % CO2, 95% air, and 100% relative humidity. […] Bound stain is subsequently solubilized with 10 mM trizma base, and the absorbance is read on an automated plate reader at a wavelength of 515 nm. […] Using the seven absorbance measurements [time zero, (Tz), control growth, (C), and test growth in the presence of drug at the five concentration levels (Ti)], the percentage growth is calculated at each of the drug concentrations levels. Percentage growth inhibition is calculated as: […]

Experiment [2] deals with DNA-PK (Homo sapiens, UniProt P78527). In words: Z'-LYTE / Adapta biochemical kinase assay, DNA-PK. Conditions: for inhibition at 0.1 µM: concentration of 100 nM/liter, read-out: Percent Inhibition of target enzymes, DNA-PK. From the text: The Z′-LYTE® biochemical assay employs a fluorescence-based, coupled-enzyme format and is based on the differential sensitivity of phosphorylated and non-phosphorylated peptides to proteolytic cleavage. The peptide substrate is labeled with two fluorophores—one at each end—that make up a FRET pair. In the primary reaction, the kinase transfers the gamma-phosphate of ATP to a single tyrosine, serine or threonine residue in a synthetic FRET-peptide. In the secondary reaction, a site-specific protease recognizes and cleaves non-phosphorylated FRET-peptides. Phosphorylation of FRET-peptides suppresses cleavage by the Development Reagent. Cleavage disrupts FRET between the donor (i.e., coumarin) and acceptor (i.e., fluorescein) fluorophores on the FRET-peptide, whereas uncleaved, phosphorylated FRET-peptides maintain FRET. A ratiometric method, which calculates the ratio (the Emission Ratio) of donor emission to acceptor emission after excitation of the donor fluorophore at 400 nm, is used to quantitate reaction progress.
A significant benefit of this ratiometric method for quantitating reaction progress is the elimination of well-to-well variations in FRET-peptide concentration and signal intensities. As a result, the assay yields very high Z′-factor values (>0.7) at a low percent phosphorylation.
Both cleaved and uncleaved FRET-peptides contribute to the fluorescence signals and therefore to the Emission Ratio. The extent of phosphorylation of the FRET-peptide can be calculated from the Emission Ratio. The Emission Ratio will remain low if the FRET-peptide is phosphorylated (i.e., no kinase inhibition) and will be high if the FRET-peptide is non-phosphorylated (i.e., kinase inhibition).
Enzyme: The ADAPTA universal kinase assay is a homogenous, fluorescent based immunoassay for the detection of ADP. In contrast to ATP depletion assays, the ADAPTA assay is extremely sensitive to ADP formation such that a majority of the signal change occurs in the first 10-20% conversion of ATP to ADP. This makes the ADAPTA universal kinase assay ideally suited for use with low activity kinases.
The principle of the ADAPTA universal kinase assay is outlined below. The assay itself can be divided into two phases: a kinase reaction phase, and an ADP detection phase. In the kinase reaction phase, all components required for the kinase reaction are added to the well, and the reaction is allowed to incubate for 60 minutes. After the reaction, a detection solution consisting of a europium labeled anti-ADP antibody, an Alexa Fluor® 647 labeled ADP tracer, and EDTA (to stop the kinase reaction) is added to the assay well. ADP formed by the kinase reaction (in the absence of an inhibitor) will displace the Alexa Fluor® 647 labeled ADP tracer from the antibody, resulting in a decrease in the TR-FRET signal. In the presence of an inhibitor, the amount of ADP formed by the kinase reaction is reduced, and the resulting intact antibody-tracer interaction results in a high TR-FRET signal.
Test Compounds: The Test Compounds are screened in 1% DMSO (final) in the well. For 10 point titrations, 3-fold serial dilutions are conducted from the starting concentration of the customer’s choosing.
Peptide/Kinase Mixtures: All Peptide/Kinase Mixtures are diluted to a 2X working concentration in the appropriate Kinase Buffer.
ATP Solution: All ATP Solutions are diluted to a 4X working concentration in Kinase Buffer (50 mM HEPES pH 7.5, 0.01% BRIJ-35, 10 mM MgCl2,1 mM EGTA). ATP Km apparent is previously determined using a Z′-LYTE® assay.
Development Reagent Solution: The Development Reagent is diluted in Development Buffer.
Assay Protocol: Bar-coded Corning, low volume NBS, black 384-wellplate (Corning Cat. #4514) 1. 2.5 µL - 4X Test Compound or 100 nL 100X plus 2.4 µL kinase buffer. 2. 5 µL - 2X Peptide/Kinase Mixture. 3. 2.5 µL - 4X ATP Solution. 4. 30-second plate shake. 5. 60-minute Kinase Reaction incubation at room temperature. 6. 5 µL - Development Reagent Solution. 7. […]

Experiment [3] has as its system KM12. In words: NCI COMPARE panel (SRB growth inhibition), KM12. It counts as cell-based. As to conditions: Homo sapiens; Colon Cancer, KM12, 48 h. The procedure: as §1, §2, §3
The test system of experiment [4] is TK-10. In words: NCI COMPARE panel (SRB growth inhibition), TK-10. In kind it is cell-based. Conditions: Homo sapiens; Renal Cancer, TK-10, 48 h. How it is done:
as §1, §2, §3

Consider `CS(=O)(=O)Nc1cc(-c2ccc3ncc(C#N)c(Nc4cccc(Cl)c4F)c3c2)cnc1Cl` [Compound 10, N-[2-chloro-5-[4-(3-chloro-2-fluoro-anilino)-3-cyano-6-quinolyl]-3-pyridyl]methanesulfonamide], for which the GI50 in experiment [1] is 75 to 125 nM; in experiment [3], greater than 250 nM; in experiment [4], 75 to 125 nM. Moreover, the inhibition at 0.1 µM in experiment [2] was greater than 90%.

As to `CS(=O)(=O)Nc1cc(-c2ccc3ncnc(Nc4cccc(Cl)c4F)c3c2)cnc1Cl` [Compound 6, N-[2-chloro-5-[4-(3-chloro-2-fluoro-anilino)quinazolin-6-yl]-3-pyridyl] methanesulfonamide], the GI50 was greater than 250 nM in experiment [1], greater than 250 nM in experiment [3] and no more than 75 nM in experiment [4]. In experiment [2] (DNA-PK), this compound displayed an IC50 of no more than 2 nM. In experiment [2], the inhibition at 0.1 µM is greater than 90%.

In general, GI50 refers to the concentration giving 50% growth inhibition. The inhibition is the percentage by which the read-out fell short of the control. As usually defined, the IC50 is the concentration that gives 50% inhibition. The low end stands for higher potency, the high end for lower potency.
